A value given as a limit tells only on which side of the number the result lay.

This series has as its system human MDR1 P-gp. The experiment in a line: Assay D: efflux in MDCK cells transfected with the human MDR1 gene. It counts as in vitro ADME, canine. The following applies: dog; MDCK-MDR1, pH 7.4, 37° C.; read-out: Assay D: MDCK efflux ratio (BA/AB). Here is the method: The MDCK assay provides information on the potential of a compound to pass the blood brain barrier. Permeability measurements across polarized, confluent MDCK-MDR1 cell monolayers grown on permeable filter supports are used as an in vitro absorption model: apparent permeability coefficients (PE) of the compounds across the MDCK-MDR1 cell monolayers are measured (pH 7.4, 37° C.) in apical-to-basal (AB) and basal-to-apical (BA) transport direction.
The AB permeability (PEAB) represents drug absorption from the blood into the brain and the BA permeability (PEBA) drug efflux from the brain back into the blood via both, passive permeability as well as active transport mechanisms mediated by efflux and uptake transporters that are expressed on the MDCK-MDR1 cells, predominantly by the overexpressed human MDR1 P-gp. Identical or similar permeabilities in both transport directions indicate passive permeation, vectorial permeability points to additional active transport mechanisms. Higher PEBA than PEAB (PEBA/PEAB>5) indicates the involvement of active efflux mediated by MDR1 P-gp, which might compromises the goal to achieve sufficient brain exposure. Therefore this assay provides valuable support for selection of compounds applicable for further in vivo testing. High permeability not limited by efflux at the blood brain barrier is a favourable characteristic for compounds that are to be used for drugs acting primarily in the CNS
D. Assessment of Efflux in Madin-Darby Canine Kidney (MDCK) Cells Transfected with the Human MDR1 Gene
Apparent permeability coefficients (PE) of the compounds across the MDCK-MDR1 cell monolayers are measured (pH 7.4, 37° C.) in apical-to-basal (AB) and basal-to-apical (BA) transport direction. AB permeability (PEAB) represents drug absorption from the blood into the brain and BA permeability (PEBA) drug efflux from the brain back into the blood via both passive permeability as well as active transport mechanisms mediated by efflux and uptake transporters that are expressed on the MDCK-MDR1 cells, predominantly by the overexpressed human MDR1 P-gp. The compounds are assigned to permeability/absorption classes by comparison of the AB permeabilities with the AB permeabilities of reference compounds with known in vitro permeability and oral absorption in the human. Identical or similar permeabilities in both transport directions indicate passive permeation, vectorial permeability points to additional active transport mechanisms. Higher PEBA than PEAB indicates the involvement of active efflux mediated by MDR1 P-gp. Active transport is concentration-dependently saturable.
MDCK-MDR1 cells (1-2×10 e5 cells/1 cm2 area) are seeded on filter inserts (Costar transwell polycarbonate or PET filters, 0.4 μm pore size) and cultured (DMEM) for 7 days. Subsequently, the MDR1 expression is boosted by culturing the cells with 5 mM sodium butyrate in full medium for 2 days. Compounds are dissolved in appropriate solvent (like DMSO, 1-20 mM stock solutions). Stock solutions are diluted with HTP-4 buffer (128.13 mM NaCl, 5.36 mM KCl, 1 mM MgSO4, 1.8 mM CaCl2, 4.17 mM NaHCO3, 1.19 mM Na2HPO4×7H2O, 0.41 mM NaH2PO4×H2O, 15 mM HEPES, 20 mM glucose, 0.25% BSA, pH 7.4) to prepare the transport solutions (0.1-300 μM compound, final DMSO<=0.5%). The transport solution (TL) is applied to the apical or basolateral donor side for measuring A-B or B-A permeability (3 filter replicates), respectively. The receiver side contains the same buffer as the donor side. Samples are collected at the start and end of experiment from the donor and at various time intervals for up to 2 hours also from the receiver side for concentration measurement by HPLC-MS/MS or scintillation counting. Sampled receiver volumes are replaced with fresh receiver solution.
Take `C[C@@H](CNc1ncc(C(F)(F)F)cn1)N(CC(F)F)C(=O)c1c(F)cccc1-c1ncccn1` [Example 5]: the efflux ratio is < 3.
Consider `C[C@@H](CNc1ncc(C(F)(F)F)cn1)N(CC(F)F)C(=O)c1cccc(F)c1-c1ncccn1` [Example 3], for which the efflux ratio was < 3.
The result for `C[C@@H](CNc1ncc(C(F)(F)F)cn1)N(CC(F)F)C(=O)c1cc(F)ccc1-c1ncccn1` [Example 4] reads < 3; that for `C[C@@H](CNc1ncc(C(F)(F)F)cn1)N(CC(F)F)C(=O)c1cc(F)cc(F)c1-n1nccn1` [Example 1], < 3; that for `C[C@@H](CNc1ncc(C(F)(F)F)cn1)N(CC(F)F)C(=O)c1cccc(F)c1-n1nccn1` [Example 2], < 3.

Source of the values: patent US11324724B2, “N-(2,2-difluoroethyl)-N-[(pyrimidinylamino)propanyl]arylcarboxamides” (Boehringer Ingelheim International GmbH, priority 2017, dated 2022).
